# Results published in ChEMBL document CHEMBL4765458, “Synthesis and biological evaluation of organoselenium (NSAIDs-SeCN and SeCF) derivatives as potential anticancer agents” (Eur J Med Chem, 2020).
# pIC50: −log10 of the molar value. Calls of active or inactive are those of the source. No cut-off for these calls is given here.
# Tests used:
# MCF7 [1] = test: Cytotoxicity against human MCF7 cells assessed as reduction in cell viability measured after 48 hrs by MTT assay; assay type: functional, cell-based; details: MCF7, 48 h
# HeLa [2] = test: Cytotoxicity against human HeLa cells assessed as reduction in cell viability measured after 48 hrs by MTT assay; assay type: functional, cell-based
# HeLa [3] = test: Cytotoxicity against human HeLa cells assessed as reduction in cell viability measured after 24 hrs by MTT assay; assay type: functional, cell-based
# SW480 [4] = test: Cytotoxicity against human SW480 cells assessed as reduction in cell viability measured after 24 hrs by MTT assay; assay type: functional, cell-based; details: SW480, 24 h
# MCF7 [5] = test: Cytotoxicity against human MCF7 cells assessed as reduction in cell viability measured after 72 hrs by MTT assay; assay type: functional, cell-based; details: MCF7, 72 h
# A549 [6] = test: Cytotoxicity against human A549 cells assessed as reduction in cell viability measured after 24 hrs by MTT assay; assay type: functional, cell-based; details: A549, 24 h
# MCF7 [7] = test: Cytotoxicity against human MCF7 cells assessed as reduction in cell viability measured after 24 hrs by MTT assay; assay type: functional, cell-based; details: MCF7, 24 h
# A549 [8] = test: Cytotoxicity against human A549 cells assessed as reduction in cell viability measured after 72 hrs by MTT assay; assay type: functional, cell-based; details: A549, 72 h
# SW480 [9] = test: Cytotoxicity against human SW480 cells assessed as reduction in cell viability measured after 48 hrs by MTT assay; assay type: functional, cell-based; details: SW480, 48 h
# SW480 [10] = test: Cytotoxicity against human SW480 cells assessed as reduction in cell viability measured after 72 hrs by MTT assay; assay type: functional, cell-based; details: SW480, 72 h
# HeLa [11] = test: Cytotoxicity against human HeLa cells assessed as reduction in cell viability measured after 72 hrs by MTT assay; assay type: functional, cell-based
# A549 [12] = test: cells; details: Homo sapiens, A549, 48 h
# [13] = Antioxidant activity assessed as DPPH radical scavenging activity incubated for 30 mins under dark condition relative to control; assay type: functional; design: concentration or dose not given beside the values
# MCF7 [14] = test: Induction of apoptosis in human MCF7 cells assessed as up regulation of caspase-3 expression at IC50 measured after 48 hrs by ELISA relative to control; assay type: functional
# MCF7 [15] = test: Induction of apoptosis in human MCF7 cells assessed as down regulation of Bcl-2 expression at IC50 measured after 48 hrs by ELISA relative to control; assay type: functional
# MCF7 [16] = test: Induction of apoptosis in human MCF7 cells assessed as up regulation of IL-2 expression at IC50 measured after 48 hrs by ELISA relative to control; assay type: functional
# [17] = Antioxidant activity assessed as GPx-like activity by measuring oxidation of NADPH to NADP+ by NADPH-reductase coupled assay; assay type: functional
Structure (SMILES),pIC50 (MCF7 [1]),pIC50 (HeLa [2]),pIC50 (HeLa [3]),pIC50 (SW480 [4]),pIC50 (MCF7 [5]),pIC50 (A549 [6]),pIC50 (MCF7 [7]),pIC50 (A549 [8]),pIC50 (SW480 [9]),pIC50 (SW480 [10]),pIC50 (HeLa [11]),pIC50 (A549 [12]),inhibition [13] [%],Activity (MCF7 [14]),Activity (MCF7 [15]),Activity (MCF7 [16]),Activity [17]
COc1ccc2c(c1)c(CC(=O)NCCC[Se]C#N)c(C)n2C(=O)c1ccc(Cl)cc1,< 4.30,4.61,4.49,4.79,< 4.30,4.55,4.55,< 4.30,4.74,4.85,4.71,4.51,49.6,–,–,–,–
COc1ccc2cc([C@H](C)C(=O)NCCC[Se]C#N)ccc2c1,4.57,4.61,4.67,4.92,< 4.30,4.49,4.55,< 4.30,4.66,4.52,4.45,< 4.30,22.6,–,–,–,–
COc1ccc2c(c1)c(CC(=O)O)c(C)n2C(=O)c1ccc(Cl)cc1 [INDOMETHACIN],< 4.30,< 4.30,< 4.30,< 4.30,< 4.30,< 4.30,< 4.30,< 4.30,< 4.30,< 4.30,< 4.30,< 4.30,–,–,–,–,–
Cc1cccc(Nc2ccccc2C(=O)NCCC[Se]C#N)c1C,4.95,4.46,4.58,4.84,5.10,4.43,4.73,< 4.30,5.01,4.88,< 4.30,< 4.30,26.5,–,–,–,–
CC(C(=O)NCCC[Se]C#N)c1ccc(-c2ccccc2)c(F)c1 (stereo not drawn),4.49,4.49,4.44,4.63,< 4.30,4.63,4.65,< 4.30,4.52,4.66,4.80,4.49,16.3,–,–,–,–
CCc1cccc2c3c([nH]c12)C(CC)(CC(=O)NCCC[Se]C(F)(F)F)OCC3 (stereo not drawn),4.55,4.84,4.64,4.76,4.47,4.71,4.58,4.58,4.84,4.71,4.59,4.75,26.8,–,–,–,–
CC1=C(CC(=O)NCCC[Se]C#N)c2cc(F)ccc2/C1=C\c1ccc([S+](C)[O-])cc1 (stereo not drawn),5.08,4.79,4.55,4.81,4.95,4.94,4.88,5.03,4.91,4.92,4.67,4.82,21.2,–,–,–,–
CC(=O)Oc1ccccc1C(=O)NCCC[Se]C#N,5.07,4.55,4.50,5.03,4.99,4.74,5.17,4.65,5.13,5.09,4.74,4.65,52.1,Active,Active,Active,Active
CC(C(=O)NCCC[Se]C(F)(F)F)c1ccc(-c2ccccc2)c(F)c1 (stereo not drawn),4.77,4.55,4.52,4.74,4.73,4.84,4.92,4.45,4.61,4.71,4.83,4.63,40.5,–,–,–,Active
CCc1cccc2c3c([nH]c12)C(CC)(CC(=O)NCCC[Se]C#N)OCC3 (stereo not drawn),4.43,4.76,4.57,4.71,< 4.30,4.55,4.45,4.44,4.72,4.69,4.55,4.66,24.5,–,–,–,–
COc1ccc2cc([C@H](C)C(=O)NCCC[Se]C(F)(F)F)ccc2c1,4.66,4.65,4.78,5.00,4.45,4.55,4.71,< 4.30,4.80,4.60,4.51,4.47,37.2,–,–,–,–
COc1ccc2c(c1)c(CC(=O)NCCC[Se]C(F)(F)F)c(C)n2C(=O)c1ccc(Cl)cc1,4.59,4.67,4.52,4.84,4.46,4.74,4.76,4.52,4.79,4.88,4.81,4.58,25.8,–,–,–,–
CC(C)Cc1ccc(C(C)C(=O)NCCC[Se]C(F)(F)F)cc1 (stereo not drawn),5.37,4.76,4.94,5.31,5.55,5.03,5.47,4.73,5.48,5.38,4.71,4.82,68.7,Active,>50%,Active,Active
CC1=C(CC(=O)O)c2cc(F)ccc2/C1=C\c1ccc([S+](C)[O-])cc1 (stereo not drawn),< 4.30,< 4.30,< 4.30,< 4.30,< 4.30,< 4.30,< 4.30,< 4.30,< 4.30,< 4.30,< 4.30,< 4.30,–,–,–,–,–
Cc1cccc(Nc2ccccc2C(=O)NCCC[Se]C(F)(F)F)c1C,5.04,4.55,4.61,4.91,5.16,4.56,5.07,< 4.30,5.08,4.99,< 4.30,4.43,38.9,–,–,–,–
O=c1[nH]cc(F)c(=O)[nH]1 [FLUOROURACIL],4.98,4.81,4.69,4.82,4.90,4.60,5.07,4.76,4.91,–,4.90,–,–,–,–,–,–
CC1=C(CC(=O)NCCC[Se]C(F)(F)F)c2cc(F)ccc2/C1=C\c1ccc([S+](C)[O-])cc1 (stereo not drawn),5.19,4.82,4.61,4.87,4.98,5.03,5.09,5.13,4.94,5.00,4.71,4.95,32.8,–,–,–,–
C[C@H](C(=O)NCCC[Se]C(F)(F)F)c1cccc(C(=O)c2ccccc2)c1,5.03,4.76,4.71,5.09,5.02,4.88,5.07,4.65,5.13,5.19,4.54,4.74,48.4,–,–,–,Active
CC(C(=O)O)c1cccc(C(=O)c2ccccc2)c1 (stereo not drawn) [KETOPROFEN],< 4.30,< 4.30,< 4.30,< 4.30,< 4.30,< 4.30,< 4.30,< 4.30,< 4.30,< 4.30,< 4.30,< 4.30,–,–,–,–,–
N#C[Se]CCCNC(=O)c1ccccc1Nc1cccc(C(F)(F)F)c1,4.79,4.48,4.42,4.60,4.88,4.58,4.85,4.44,4.76,4.61,< 4.30,4.55,–,–,–,–,–
C[C@H](C(=O)NCCC[Se]C#N)c1cccc(C(=O)c2ccccc2)c1,4.95,4.73,4.59,4.99,4.90,4.62,5.02,4.49,5.08,5.11,4.46,4.55,30.4,–,–,–,–
O=C(NCCC[Se]C(F)(F)F)c1ccccc1Nc1cccc(C(F)(F)F)c1,5.08,4.52,4.48,4.65,5.03,4.74,5.14,4.58,4.80,4.71,< 4.30,4.67,–,–,–,–,–
